Test results from paper PMC12655637, “Design, Synthesis, and Mechanistic Study of Novel Ciprofloxacin/Thiazole Chalcone Hybrids as Potential Anticancer Agents” (Pharmaceuticals, 2025).

Legend:
SW-620 = assay: NCI-60 screening, one-dose (10 µM) and five-dose, SRB; type: cell-based, human; conditions: Homo sapiens; 10 μM; SW-620, Colon Cancer; read-out: Growth percentage
OVCAR-4 = assay: as above; type: cell-based, human; conditions: Homo sapiens; 10 μM; OVCAR-4, Ovarian Cancer; read-out: Growth percentage
EKVX = assay: as above; type: cell-based, human; conditions: Homo sapiens, 10 μM, Non-Small-Cell Lung Cancer, read-out: Growth percentage
SF-295 = assay: as above; type: cell-based, human; conditions: Homo sapiens; 10 μM; SF-295, CNS Cancer; read-out: Growth percentage
SNB-75 = assay: as above; type: cell-based, human; conditions: Homo sapiens; 10 μM; SNB-75, CNS Cancer; read-out: Growth percentage
RPMI-8226 = assay: as above; type: cell-based, human; conditions: Homo sapiens, RPMI-8226, 10 μM; RPMI-8226, Leukemia; read-out: Growth percentage
NCI-H23 = assay: as above; type: cell-based, human; conditions: Homo sapiens; 10 μM; NCI-H23, Non-Small-Cell Lung Cancer; read-out: Growth percentage
786−0 = assay: as above; type: cell-based, human; conditions: Homo sapiens; 10 μM; 786−0, Renal Cancer; read-out: Growth percentage
A498 = assay: as above; type: cell-based; conditions: Homo sapiens, A498, 10 μM; A498, Renal Cancer; read-out: Growth percentage
UACC-62 = assay: as above; type: cell-based; conditions: Homo sapiens; 10 μM; UACC-62, Melanoma; read-out: Growth percentage
KM12 = assay: as above; type: cell-based, human; conditions: Homo sapiens, KM12, 10 μM; KM12, Colon Cancer; read-out: Growth percentage
RXF 393 = assay: as above; type: cell-based; conditions: Homo sapiens; 10 μM; RXF 393, Renal Cancer; read-out: Growth percentage
UACC-257 = assay: as above; type: cell-based, human; conditions: Homo sapiens; 10 μM; UACC-257, Melanoma; read-out: Growth percentage
MOLT-4 = assay: as above; type: cell-based, human; conditions: Homo sapiens; 10 μM; MOLT-4, Leukemia; read-out: Growth percentage
SK-OV-3 = assay: as above; type: cell-based, human; conditions: Homo sapiens; 10 μM; SK-OV-3, Ovarian Cancer; read-out: Growth percentage
BT-549 = assay: as above; type: cell-based; conditions: Homo sapiens; 10 μM; BT-549, Breast Cancer; read-out: Growth percentage
[1] = test system: 60 human cancer cell lines; assay: NCI-60 screening, full panel (mean growth, MID a, ranges over all lines); conditions: Homo sapiens, read-out: Mean growth percentage
Protocol: The screening was performed in accordance with the protocols set forth by the Drug Evaluation Department of the National Cancer Institute (NCI), Bethesda, USA, for in vitro anticancer efficacy at a single concentration of 10 µM against a panel of 60 cancer cell lines derived from nine distinct organs (https://dctd.cancer.gov/data-tools-biospecimens/data (accessed on 15 March 2023 and 6 January 2024)) [37].
The log10 GI50, log10 TGI, and log10 LC50 values were subsequently calculated as the averages of the log10 values of the respective individual GI50, TGI, and LC50 measurements. Negative numbers signified the most sensitive cell lines.
One way to measure a compound’s selectivity is to divide its subpanel MID^b (in μM) by the MID^a (in μM), which is the average sensitivity of all cell lines to the test agent.
At the National Cancer Institute (NCI) in Bethesda, USA, researchers examined the anticancer potential of the target compounds under investigation using nine panels of sixty different cell lines obtained from nine different cancers that were housed in the NCI library. Following the protocols laid out by the National Cancer Institute (https://dctd.cancer.gov/data-tools-biospecimens/data (accessed on 15 March 2023 and 6 January 2024)), the screening procedures were carried out [37]. The anticancer screening was carried out at a single dose of 10^−5 M; the results obtained were expressed as growth inhibition (%).
The anti-cancer potential of the tested compounds was evaluated at the National cancer institute (NCI), Bethesda, USA, against 9 panels of 60 various cell lines derived from nine human tumours available usually at NCI library. The procedures for the screening were described in details in NCI website (dttp://www.dtp.nci.nih.gov.) and were done according to NCI protocols. The anticancer screening was carried out at single dose of 10^-5 M. The results obtained as growth inhibition (%).
Cell lines were grown in Roswell Park Memorial Institute medium (RPMI) with 5% fetal bovine serum and 2% μM L-glutamine. Cancer cells are inoculated into 96 well microtiter plates in 100 μL at plating densities ranging from 5000 to 40,000 cells/well depending on the doubling time of individual cell lines. Then microtiter plates are incubated at 37 °C, 5% CO2, 95% air and 100% relative humidity for 24 h prior to the addition of the tested compounds. After 24 h, two plates of each cell line are fixed in situ with trichloroacetic acid (TCA). The tested compounds were dissolved in dimethyl sulfoxide (DMSO) and stored in the freezer prior to use. An aliquot of frozen drug concentrate is diluted to the desired concentration with complete medium containing 50 μg/mL gentamicin.

SR = assay: NCI-60 screening, one-dose (10 µM) and five-dose, SRB; type: cell-based, human; conditions: 10 μM, Leukemia
OVCAR-3 = assay: as above; type: cell-based; conditions: Homo sapiens; 10 μM; OVCAR-3, Ovarian Cancer; read-out: Growth percentage
OVCAR-5 = assay: as above; type: cell-based, human; conditions: 10 μM; OVCAR-5, Ovarian Cancer
M14 = assay: as above; type: cell-based, human; conditions: Homo sapiens; 10 μM; M14, Melanoma; read-out: Growth percentage
TK-10 = assay: as above; type: cell-based, human; conditions: Homo sapiens; 10 μM; TK-10, Renal Cancer; read-out: Growth percentage
HT29 = assay: as above; type: cell-based, human; conditions: Homo sapiens, HT-29; 10 μM; HT29, Colon Cancer; read-out: Growth percentage
DU-145 = assay: as above; type: cell-based, human; conditions: Homo sapiens; 10 μM; DU-145, Prostate Cancer; read-out: Growth percentage
MDA-MB-435 = assay: as above; type: cell-based; conditions: Homo sapiens, MDA-MB-435, read-out: Growth percentage, 10 μM; MDA-MB-435, Melanoma
HOP-92 = assay: as above; type: cell-based, human; conditions: Homo sapiens; 10 μM; HOP-92, Non-Small-Cell Lung Cancer; read-out: Growth percentage
T-47D = assay: as above; type: cell-based, human; conditions: 10 μM, Breast Cancer
HCT-116 = assay: as above; type: cell-based, human; conditions: Homo sapiens, HCT-116, 10 μM; HCT-116, Colon Cancer; read-out: Growth percentage
HCC-2998 = assay: as above; type: cell-based, human; conditions: Homo sapiens; 10 μM; HCC-2998, Colon Cancer; read-out: Growth percentage
ACHN = assay: as above; type: cell-based, human; conditions: Homo sapiens, 10 μM, Renal Cancer, read-out: Growth percentage
SK-MEL-5 = assay: as above; type: cell-based, human; conditions: Homo sapiens; 10 μM; SK-MEL-5, Melanoma; read-out: Growth percentage

| Structure (SMILES) | activity at 10 µM (SW-620) [%] | activity at 10 µM (OVCAR-4) [%] | activity at 10 µM (EKVX) [%] | activity at 10 µM (SF-295) [%] | activity at 10 µM (SNB-75) [%] | activity at 10 µM (RPMI-8226) [%] | activity at 10 µM (NCI-H23) [%] | activity at 10 µM (786−0) [%] | activity at 10 µM (A498) [%] | activity at 10 µM (UACC-62) [%] | activity at 10 µM (KM12) [%] | activity at 10 µM (RXF 393) [%] | activity at 10 µM (UACC-257) [%] | activity at 10 µM (MOLT-4) [%] | activity at 10 µM (SK-OV-3) [%] | activity at 10 µM (BT-549) [%] | activity at 10 µM [1] [%] | Growth percentage (SR) [%] | activity at 10 µM (OVCAR-3) [%] | Growth percentage (OVCAR-5) [%] | other results |
| --- | --- | --- | --- | --- | --- | --- | --- | --- | --- | --- | --- | --- | --- | --- | --- | --- | --- | --- | --- | --- | --- |
| Cc1nc(SCC(=O)N2CCN(c3cc4c(cc3F)c(=O)c(C(=O)O)cn4C3CC3)CC2)sc1C(=O)/C=C/c1ccc(N(C)C)cc1 [Compound 4i, (E)-1-Cyclopropyl-7-(4-(2-((5-(3-(4-(dimethylamino)phenyl)acryloyl)-4-methylthiazol-2-yl)thio)acetyl)piperazin-1-yl)-6-fluoro-4-oxo-1,4-dihydroquinoline-3-carboxylic Acid] | 117 | 102 | 110 | 91.4 | 104 | 4.7 | 76.2 | 59.2 | 126 | 79.9 | 79.4 | 90.5 | 108 | 89.2 | 119 | 12.9 | 83.9 | 64.5 | 172 | 102.5 | activity at 10 µM (M14): 75.9%; activity at 10 µM (TK-10): 91.8%; activity at 10 µM (HT29): 47.9%; activity at 10 µM (DU-145): 147%; activity at 10 µM (MDA-MB-435): 26.6%; activity at 10 µM (HOP-92): 91.7%; Growth percentage (T-47D): 88.2%; activity at 10 µM (HCT-116): 2.6%; activity at 10 µM (HCC-2998): 44.4%; activity at 10 µM (ACHN): 97.7%; activity at 10 µM (SK-MEL-5): 89.8% |
| COc1ccc(/C=C/C(=O)c2sc(SCC(=O)N3CCN(c4cc5c(cc4F)c(=O)c(C(=O)O)cn5C4CC4)CC3)nc2C)cc1 [Compound 4j, (E)-1-Cyclopropyl-6-fluoro-7-(4-(2-((5-(3-(4-methoxyphenyl)acryloyl)-4-methylthiazol-2-yl)thio)acetyl)piperazin-1-yl)-4-oxo-1,4-dihydroquinoline-3-carboxylic Acid] | 123 | 101 | 103 | 101 | 86.2 | 106 | 102 | 88.6 | 117 | 111 | 112 | 99.3 | 114 | 99.7 | 115 | 102 | 105 | 88.9 | 174 | 110.0 | activity at 10 µM (M14): 109%; activity at 10 µM (TK-10): 102%; activity at 10 µM (HT29): 108%; activity at 10 µM (DU-145): 113%; activity at 10 µM (MDA-MB-435): 108%; activity at 10 µM (HOP-92): 105%; Growth percentage (T-47D): 94.7%; activity at 10 µM (HCT-116): 103%; activity at 10 µM (HCC-2998): 100%; activity at 10 µM (ACHN): 97.4%; activity at 10 µM (SK-MEL-5): 99.7% |
